Experimental data: ChEMBL document CHEMBL1201862, “PubChem BioAssay data set” (2004)
Each block holds one compound with its values, some of them ahead of it. The source made the active and inactive calls.

Tests used:
Estrogen receptor = biological target: T1, Estrogen receptor (Homo sapiens, UniProt P03372);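 note: potency for inhibiting coactivator peptide recruitment to the receptor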
T1 sequence (P03372 whole entry): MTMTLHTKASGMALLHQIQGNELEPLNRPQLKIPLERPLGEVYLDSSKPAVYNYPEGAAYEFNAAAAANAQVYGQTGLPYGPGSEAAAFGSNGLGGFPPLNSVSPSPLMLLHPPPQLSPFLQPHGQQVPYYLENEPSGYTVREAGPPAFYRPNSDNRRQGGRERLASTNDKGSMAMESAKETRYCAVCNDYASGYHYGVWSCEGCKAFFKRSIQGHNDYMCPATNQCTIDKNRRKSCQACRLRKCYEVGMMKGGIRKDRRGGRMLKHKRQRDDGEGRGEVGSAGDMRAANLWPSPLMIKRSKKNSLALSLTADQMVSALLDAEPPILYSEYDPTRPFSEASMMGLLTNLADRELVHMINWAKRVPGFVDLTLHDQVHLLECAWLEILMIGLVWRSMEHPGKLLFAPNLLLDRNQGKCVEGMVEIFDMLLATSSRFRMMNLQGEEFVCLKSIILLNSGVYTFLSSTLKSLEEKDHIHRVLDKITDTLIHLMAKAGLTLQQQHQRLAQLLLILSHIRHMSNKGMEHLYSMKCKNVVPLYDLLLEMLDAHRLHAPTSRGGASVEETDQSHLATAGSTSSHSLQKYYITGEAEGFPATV

Protein skinhead-1 = biological target: T2, Protein skinhead-1 (Caenorhabditis elegans, UniProt P34707); format: functional
T2 sequence (P34707 whole entry): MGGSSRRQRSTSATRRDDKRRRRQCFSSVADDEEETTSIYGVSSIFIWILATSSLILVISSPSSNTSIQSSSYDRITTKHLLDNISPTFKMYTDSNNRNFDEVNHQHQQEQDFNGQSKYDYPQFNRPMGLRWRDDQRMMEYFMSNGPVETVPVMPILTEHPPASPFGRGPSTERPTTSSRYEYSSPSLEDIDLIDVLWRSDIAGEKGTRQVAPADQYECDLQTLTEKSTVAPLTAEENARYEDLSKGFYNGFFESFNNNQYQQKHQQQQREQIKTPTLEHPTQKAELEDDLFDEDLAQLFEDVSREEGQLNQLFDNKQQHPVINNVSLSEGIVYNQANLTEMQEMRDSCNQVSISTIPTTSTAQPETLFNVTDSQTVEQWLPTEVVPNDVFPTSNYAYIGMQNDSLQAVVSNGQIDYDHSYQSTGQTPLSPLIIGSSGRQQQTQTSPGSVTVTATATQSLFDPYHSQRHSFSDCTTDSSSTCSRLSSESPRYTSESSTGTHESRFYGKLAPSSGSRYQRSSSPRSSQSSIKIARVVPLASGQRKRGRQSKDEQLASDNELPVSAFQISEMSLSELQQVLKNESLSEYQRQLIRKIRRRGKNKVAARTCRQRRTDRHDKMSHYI

Aspartyl aminopeptidase = biological target: T3, Aspartyl aminopeptidase (Plasmodium falciparum 3D7, UniProt Q8I2J3); assay: Counterscreen for inhibitors of M1 and M17 aminopeptidases: QFRET-based biochemical high throughput dose response assay for inhibitors of the Plasmodium falciparum M18 Aspartyl Aminopeptidase (PFM18AAP). [Related PubChem assays: 1619 (Screening assay (M17LAP inhibitors).), 1445 (Screening assay (M1AAP inhibitors).)]
T3 sequence (Q8I2J3 whole entry): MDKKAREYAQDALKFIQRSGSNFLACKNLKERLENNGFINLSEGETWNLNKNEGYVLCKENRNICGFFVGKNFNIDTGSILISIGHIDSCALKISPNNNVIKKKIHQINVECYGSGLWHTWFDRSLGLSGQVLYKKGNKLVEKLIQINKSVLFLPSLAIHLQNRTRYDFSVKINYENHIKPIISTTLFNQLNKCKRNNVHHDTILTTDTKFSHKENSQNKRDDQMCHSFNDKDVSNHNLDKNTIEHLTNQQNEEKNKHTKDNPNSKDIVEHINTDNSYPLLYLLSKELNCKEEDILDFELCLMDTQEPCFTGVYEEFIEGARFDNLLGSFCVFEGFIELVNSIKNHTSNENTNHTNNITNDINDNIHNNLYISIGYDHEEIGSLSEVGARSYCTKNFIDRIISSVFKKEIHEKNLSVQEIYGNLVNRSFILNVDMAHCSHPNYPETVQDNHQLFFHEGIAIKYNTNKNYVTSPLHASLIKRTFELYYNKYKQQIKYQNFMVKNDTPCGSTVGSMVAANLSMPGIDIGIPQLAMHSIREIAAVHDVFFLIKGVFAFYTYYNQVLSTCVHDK

[1] = biological target: T4, Short transient receptor potential channel 4 (Mus musculus, UniProt Q9QUQ5); assay: block of DAMGO-driven TRPC4 calcium entry – cell-based, HEK293 TRPC4/mu-opioid, Fluo-4 calcium, dose response (AID 434942); format: functional;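 note: potency of inhibitors blocking the TRPC4 calcium response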
T4 sequence (Q9QUQ5 whole entry): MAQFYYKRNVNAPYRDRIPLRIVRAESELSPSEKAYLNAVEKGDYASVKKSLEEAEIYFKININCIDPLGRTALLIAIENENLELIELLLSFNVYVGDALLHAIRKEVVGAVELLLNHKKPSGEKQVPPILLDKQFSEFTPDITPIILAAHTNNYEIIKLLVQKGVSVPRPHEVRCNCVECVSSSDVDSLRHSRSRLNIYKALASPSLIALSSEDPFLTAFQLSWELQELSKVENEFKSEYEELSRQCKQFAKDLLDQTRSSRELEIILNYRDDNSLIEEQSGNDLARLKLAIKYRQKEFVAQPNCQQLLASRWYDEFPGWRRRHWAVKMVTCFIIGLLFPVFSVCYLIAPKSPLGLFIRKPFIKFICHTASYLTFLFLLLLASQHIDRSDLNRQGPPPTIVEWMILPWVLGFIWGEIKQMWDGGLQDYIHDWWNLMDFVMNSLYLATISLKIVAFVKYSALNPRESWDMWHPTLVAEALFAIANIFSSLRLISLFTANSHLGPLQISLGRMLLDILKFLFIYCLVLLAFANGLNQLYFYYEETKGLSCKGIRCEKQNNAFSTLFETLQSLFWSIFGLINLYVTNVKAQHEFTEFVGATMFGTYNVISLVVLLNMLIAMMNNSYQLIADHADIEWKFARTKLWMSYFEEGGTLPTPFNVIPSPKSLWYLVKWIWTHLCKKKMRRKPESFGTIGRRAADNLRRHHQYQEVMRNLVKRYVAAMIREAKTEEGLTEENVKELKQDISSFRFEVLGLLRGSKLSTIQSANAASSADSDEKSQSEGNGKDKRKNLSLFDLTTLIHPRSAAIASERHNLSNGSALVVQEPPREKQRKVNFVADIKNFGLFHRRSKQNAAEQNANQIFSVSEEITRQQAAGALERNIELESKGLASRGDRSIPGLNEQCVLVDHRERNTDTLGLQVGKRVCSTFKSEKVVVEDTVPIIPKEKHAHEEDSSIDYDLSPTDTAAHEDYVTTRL

Leucine aminopeptidase = biological target: T5, Leucine aminopeptidase (Plasmodium falciparum 3D7, UniProt Q8IL11); assay: P. falciparum M17LAP inhibitors, primary screen, biochemical, fluorogenic H-Leu-NHMec substrate, 1536-well (AID 1619); format: functional
T5 sequence (Q8IL11 whole entry): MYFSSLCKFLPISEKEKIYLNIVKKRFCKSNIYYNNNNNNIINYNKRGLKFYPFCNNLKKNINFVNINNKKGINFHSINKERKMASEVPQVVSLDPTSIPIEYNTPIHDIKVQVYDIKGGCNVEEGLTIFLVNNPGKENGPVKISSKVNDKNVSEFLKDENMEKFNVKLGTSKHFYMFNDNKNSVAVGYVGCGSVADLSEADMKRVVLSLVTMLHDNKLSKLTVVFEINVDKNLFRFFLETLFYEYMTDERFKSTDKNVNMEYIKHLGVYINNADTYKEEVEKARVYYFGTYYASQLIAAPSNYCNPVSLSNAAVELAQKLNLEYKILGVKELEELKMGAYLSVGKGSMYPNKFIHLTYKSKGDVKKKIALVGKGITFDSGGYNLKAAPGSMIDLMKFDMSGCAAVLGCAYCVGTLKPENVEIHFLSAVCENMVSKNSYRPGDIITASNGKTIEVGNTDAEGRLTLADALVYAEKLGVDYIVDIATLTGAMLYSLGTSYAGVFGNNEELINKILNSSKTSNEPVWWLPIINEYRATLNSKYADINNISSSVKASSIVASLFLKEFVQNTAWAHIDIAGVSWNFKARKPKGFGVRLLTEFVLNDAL

Procathepsin L = Procathepsin L (Homo sapiens, UniProt P07711); assay: CTSL1 protease inhibition – biochemical, QFRET, 1536-well, counter-screen for M1/M17 aminopeptidase inhibitor project, dose response (AID 2214)
Procathepsin L, sequence (P07711 whole entry): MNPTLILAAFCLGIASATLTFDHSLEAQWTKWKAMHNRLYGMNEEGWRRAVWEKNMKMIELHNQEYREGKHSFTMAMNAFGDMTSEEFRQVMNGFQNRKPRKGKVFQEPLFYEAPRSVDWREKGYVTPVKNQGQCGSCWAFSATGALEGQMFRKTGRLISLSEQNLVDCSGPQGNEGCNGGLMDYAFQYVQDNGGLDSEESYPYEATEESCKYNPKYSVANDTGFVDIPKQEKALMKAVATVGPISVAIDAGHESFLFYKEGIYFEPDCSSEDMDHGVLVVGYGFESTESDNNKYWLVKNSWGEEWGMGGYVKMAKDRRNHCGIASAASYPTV

Genome polyprotein = Genome polyprotein (dengue virus type 2, UniProt P29990); assay: flavivirus cap methylation enzyme inhibition – biochemical, confirmation dose response, primary screen (AID 588689); format: functional
Genome polyprotein, sequence (P29990 2492-3391 limits assumed): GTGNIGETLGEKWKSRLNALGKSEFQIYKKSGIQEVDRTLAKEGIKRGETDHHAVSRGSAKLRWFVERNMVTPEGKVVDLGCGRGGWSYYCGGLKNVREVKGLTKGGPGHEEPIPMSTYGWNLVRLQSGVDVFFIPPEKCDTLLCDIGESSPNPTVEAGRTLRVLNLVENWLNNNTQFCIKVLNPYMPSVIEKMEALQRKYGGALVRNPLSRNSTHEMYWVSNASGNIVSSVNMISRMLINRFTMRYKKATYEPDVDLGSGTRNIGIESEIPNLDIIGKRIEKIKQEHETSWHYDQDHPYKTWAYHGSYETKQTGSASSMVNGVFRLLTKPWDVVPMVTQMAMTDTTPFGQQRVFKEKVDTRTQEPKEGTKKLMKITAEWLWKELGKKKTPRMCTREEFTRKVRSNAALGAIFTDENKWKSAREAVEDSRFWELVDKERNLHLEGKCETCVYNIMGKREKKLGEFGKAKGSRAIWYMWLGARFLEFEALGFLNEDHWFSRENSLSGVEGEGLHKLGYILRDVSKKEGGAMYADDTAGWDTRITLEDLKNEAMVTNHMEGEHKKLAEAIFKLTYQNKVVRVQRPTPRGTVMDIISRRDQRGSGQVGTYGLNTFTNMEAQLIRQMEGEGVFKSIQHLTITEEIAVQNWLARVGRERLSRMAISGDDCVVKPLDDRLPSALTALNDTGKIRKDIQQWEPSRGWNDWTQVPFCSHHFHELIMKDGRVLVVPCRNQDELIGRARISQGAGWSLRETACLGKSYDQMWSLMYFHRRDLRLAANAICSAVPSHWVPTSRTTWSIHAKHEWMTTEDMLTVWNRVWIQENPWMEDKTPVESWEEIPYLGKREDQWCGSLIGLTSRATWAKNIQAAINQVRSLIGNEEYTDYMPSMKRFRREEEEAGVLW

Aminopeptidase N = biological target: T6, Aminopeptidase N (Plasmodium falciparum FcB1/Columbia, UniProt O96935); assay: malaria alanyl aminopeptidase activity blockers – biochemical, fluorogenic H-Leu-NHMec substrate, 1536-well (AID 1445); set-up: species or system Plasmodium falciparum 3D7, 3D7
T6 sequence (O96935 whole entry): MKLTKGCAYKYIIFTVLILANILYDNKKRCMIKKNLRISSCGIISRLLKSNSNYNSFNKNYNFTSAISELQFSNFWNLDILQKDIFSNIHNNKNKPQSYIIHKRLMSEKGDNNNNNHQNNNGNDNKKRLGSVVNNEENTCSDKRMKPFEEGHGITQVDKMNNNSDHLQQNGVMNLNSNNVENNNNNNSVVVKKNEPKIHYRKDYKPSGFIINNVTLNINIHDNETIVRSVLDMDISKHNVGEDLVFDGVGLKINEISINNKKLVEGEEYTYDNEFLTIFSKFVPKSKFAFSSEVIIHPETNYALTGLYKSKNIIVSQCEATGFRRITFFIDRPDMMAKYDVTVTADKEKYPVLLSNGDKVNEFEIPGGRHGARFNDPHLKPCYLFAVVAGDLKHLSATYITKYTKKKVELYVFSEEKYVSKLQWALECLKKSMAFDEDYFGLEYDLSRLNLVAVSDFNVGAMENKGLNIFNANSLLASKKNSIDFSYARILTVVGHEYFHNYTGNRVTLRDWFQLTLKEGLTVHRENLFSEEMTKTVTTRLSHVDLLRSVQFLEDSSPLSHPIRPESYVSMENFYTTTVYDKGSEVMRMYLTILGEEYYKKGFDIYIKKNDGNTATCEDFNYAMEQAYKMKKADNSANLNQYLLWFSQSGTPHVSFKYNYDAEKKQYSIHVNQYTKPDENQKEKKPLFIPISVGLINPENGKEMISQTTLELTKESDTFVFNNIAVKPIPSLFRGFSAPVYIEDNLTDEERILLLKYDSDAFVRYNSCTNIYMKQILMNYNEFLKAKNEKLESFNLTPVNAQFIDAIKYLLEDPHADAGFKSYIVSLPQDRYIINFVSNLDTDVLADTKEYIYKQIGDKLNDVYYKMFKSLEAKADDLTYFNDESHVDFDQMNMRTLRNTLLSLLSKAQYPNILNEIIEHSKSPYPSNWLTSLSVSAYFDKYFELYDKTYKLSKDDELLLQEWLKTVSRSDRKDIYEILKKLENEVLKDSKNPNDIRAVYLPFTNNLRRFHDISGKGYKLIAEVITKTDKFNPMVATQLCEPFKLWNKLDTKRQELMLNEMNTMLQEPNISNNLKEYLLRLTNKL

IC50 (Estrogen receptor): > 50 µM (not active)
IC50 (Protein skinhead-1): 38.9 µM (active)
Structure (SMILES): Cc1cc(Cl)cc(C)c1OCCCCN1CCOCC1

IC50 (Aspartyl aminopeptidase): > 73.5 µM (not active)
EC50 [1]: 7.5 µM (active)
IC50 (Leucine aminopeptidase): 5.96 µM (active)
IC50 (Procathepsin L): > 59.6 µM (not active)
IC50 (Genome polyprotein): 61 µM (active)
Structure (SMILES): CCOC(=O)c1c(-c2cccc(C)c2)csc1NC(=O)C1CC=CCC1C(=O)O (stereo not drawn)

IC50 (Aminopeptidase N): 52.3 µM (active)
Structure (SMILES): CCOC(=O)c1c(NC(=O)CSc2ccccc2C(=O)O)sc(C)c1C
